According to US9051456B2, “Agent for drug clearance and accelerator for drug clearance” (SEIKAGAKU CORPORATION, priority 2005, dated 2015):

Assay: Elimination of FP from inside of the oral cavity by gargling/rinsing (Tests 1 to 6), FP in spat-out liquids measured by HPLC
Type: in vivo, human (healthy adult volunteers)
Conditions: conclusion from Tests 1 to 6
Procedure: Healthy 5 adult volunteers were selected. In this connection, these volunteers received sufficient explanation from a doctor based on a descriptive document, and after understanding the explanation, submitted a document on their own judgment stating that they approved the participation in the test.
In this connection, application of FP was carried out by directly applying the FP (dry powder) took out on powder papers. Also, the subjects were given attention not to inhale the FP applied into the oral cavity from the bronchus to the lungs.
Test 1: After rinsing inside of the oral cavity, inside of the oral cavity was dried by blowing air for 30 seconds with a dryer, and then FP (100 μg) was sparged to the oral cavity. Thereafter, rinsing of the mouth with looking upward (gargling) was carried out for 5 seconds and then rinsing of the mouth facing front (rinsing) was carried out for 5 seconds (these are regarded as once), respectively using 20 ml of purified water, which was repeated 5 times. […]
In each test, the liquids spat out after gargling and rinsing by each subject were recovered, and FP concentrations in said liquids were respectively measured. […]
Based on the measured FP concentrations, amounts of FP eliminated from inside of the oral cavity were calculated, and mean value and standard deviation (SD) in each test were calculated. […]

With hyaluronic acid [HA] the “overall effect on elimination of drugs and acceleration of elimination” value was “markedly effective”.
